From US20180098954A1, “AMELIORATING AGENT FOR EXERCISE-INDUCED GASTROINTESTINAL DISORDERS” (AJINOMOTO CO., INC., priority 2015, published 2018)

Legend:
CD2F1 mice [1] = experiment: feed intake after totally exhausting treadmill exercise for 3 consecutive days; format: in vivo; details: male CD2F1 mice; normal diet added with cystine (2%) in place of casein for 8 days; after totally exhausting exercise for 3 consecutive days; versus exercise group; P<0.05 (FIG. 5)
From the text: Athletes are known to experience gastrointestinal upset and loss of appetite in scenes where intense training such as a camp training and the like are repeated. Therefore, the improving effect of cystine on exercise-induced decrease in appetite was studied by the following test. 6-Week-old male CD2F1 mice (Charles River Laboratories Japan, Inc.) were divided into 3 groups (non-exercise group, exercise group, and exercise+2% cystine group), and a normal diet (AIN-93G composition) was given to non-exercise group and exercise group, and a normal diet (AIN-93G composition) added with cystine (2%) in place of casein was given to exercise+2% cystine group, each for 8 days. Thereafter, exercise group and exercise+2% cystine group were made to run in a treadmill to total exhaustion for 3 consecutive days, and non-exercise group was not allowed to exercise (see FIG. 4). While exercise group and exercise+2% cystine group ran, non-exercise group was fasted and deprived of water. A new feed was given every day after completion of the totally exhausting exercise, recovered the next day and the amount of the remaining feed was measured, from which feed intake was calculated.

CD2F1 mice [2] = experiment: gastrointestinal tract permeability of FD4 (FITC-dextran) after 4 hr running in a hamster wheel; format: in vivo; details: male CD2F1 mice, FD4 500 mg/kg orally
From the text: It is known that high molecular weight substances that are not usually absorbed from the gastrointestinal tract penetrate the intestine and enter the blood when the barrier function of the gastrointestinal tract is declined (FIG. 1). Therefore, the improving effect of cystine on exercise-induced decline in gastrointestinal tract barrier function was studied by the following test. […] According to the method described in Cani et al., Gut 2009, 58(8) : 1091-1103, which is incorporated herein by reference in its entirety, FD4 concentration that leaked into the blood from the gastrointestinal tract was calculated by measuring the fluorescence intensity in the blood, based on which the gastrointestinal tract permeability of FD4 was evaluated (see FIG. 2). To be specific, blood was collected from the mice under isoflurane anesthesia, the collected blood was centrifuged to give plasma, the obtained plasma was diluted 2-fold with phosphate buffer, and fluorescence intensity was measured under the conditions of excitation wavelength: 485 nm, detection wavelength: 535 nm (measurement device SPECTRA MAX GEMINI EM Molecular Devices Japan). […] After completion of running, the gastrointestinal tract permeability of FD4 was evaluated in the same manner as in Example 1.

N[C@@H](CSSC[C@H](N)C(=O)O)C(=O)O [cystine]
relative feed intake after exercise (Pre run as 100%) (CD2F1 mice [1]): significantly high as compared to the exercise group | FD4 concentration in blood (gastrointestinal tract permeability), compared to Gln+Ex (CD2F1 mice [2]; cystine (2%) diet versus glutamine (2%) diet for 7 days, blood after 1 hr (FIG. 3)): lower FD4 concentration in blood as compared to the group (Gln+Ex) | FD4 concentration in blood (gastrointestinal tract permeability), compared to Ex (CD2F1 mice [2]; normal diet added with cystine (2%) for 7 days, blood after 1 hr, versus exercise group on normal diet, P<0.05 (FIG. 3)): lower FD4 concentration in blood as compared to Ex
